Structures are written as SMILES.

The source of these data is patent publication US20210254000A1, “PROCESS FOR PRODUCING A T CELL COMPOSITION” (Juno Therapeutics, Inc., priority 2017, published 2021).

Assay type in all cases: cell-based, human
The test system of one assay is anti-CD19 CAR-T cells. Briefly: CAR-specific expansion with anti-idiotype antibody conjugated beads. Conditions: anti-idiotype beads 1:1, 15 days; relative to media only. The procedure: Separate compositions of CD4+ and CD8+ cells were isolated from three human donors, activated and transduced with a viral vector encoding an anti-CD19 CAR substantially as described in Example 2. After transduction, the CD4+ and CD8+ T cells derived from each donor were separately incubated for 8 days in the presence of a mTOR kinase inhibitor to expand T cells substantially as described in Example 2, except in the presence of 200 nM PI-103, 1 μM Compound 63, or with DMSO vehicle or media only controls. CD4+ and CD8+ T cells from each donor were then separately harvested, formulated, and cryofrozen. […] Functional activities of the generated anti-CD19 CAR-T cell compositions were assessed.
The ability of the cells to expand following stimulation of the CAR was assessed by incubating cells of the generated anti-CD19 CAR-T cell compositions with beads surface conjugated with an anti-idiotype antibody specific to the anti-CD19 CAR. […] The total live T cells per well was determined by counting cells in the cultures every 5 days (FIG. 8A). The mean area under the curve (AUC) as a function of T cell number over time was calculated relative to the AUC of cells expanded with media only (FIG. 8B).

A further assay concerns anti-CD19 CAR+ T cells. Briefly: Chronic stimulation assay with anti-ID conjugated beads (14 days). To be noted: inhibitor present from initiation of stimulation; for primary or secondary cytolytic response: 3:1 effector:target cell ratio; for primary or secondary responses: ability of CAR-T cell compositions to produce cytokines: at thaw or after 14 day anti-ID bead stimulation, K562-CD19 1:1. The text has this: Separate compositions of CD4+ and CD8+ cells were isolated from human donors, stimulated by activation with anti-CD3/anti-CD28 magnetic beads and transduced with a viral vector encoding an anti-CD19 CAR having an scFv derived from FMC63. Following cultivation under conditions to expand the cells, T cell compositions containing engineered CD4+ and CD8+ T cells from each donor were then separately harvested, formulated, and cryofrozen. The cryofrozen engineered CD4+ and CD8+ T cells were thawed and formulated at a 1:1 ratio of CD4+ and CD8+ T cells from the same donor to generate a T cell composition containing CAR+ T cells. Anti-idiotype (ID) antibody conjugated beads against the anti-CD19 CAR were incubated with cells at a 1:1 bead:cell ratio for 14 days.
Secondary response of CAR-T cells harvested at day 14 following CAR-specific stimulation with anti-ID conjugated beads (Day 14; secondary) was assessed after stimulation with K562-CD19 antigen-expressing target cells at an effector to target ratio of 1:1 (to assess cytokine levels) or 3:1 (to assess cytolytic activity). The primary response of T cells from the T cell composition that had not been incubated with the anti-ID conjugated beads also was determined by similar stimulation with antigen-expressing cells (Day 0; “primary”). To assess cytolytic activity, the target cells were labeled with NucLight Red (NLR) to permit tracking by fluorescent microscopy. Killing activity was assessed by measuring the loss of viable target cells over 72 hours, as determined by loss of fluorescent signal over time by kinetic fluorescence microscopy (using the INCUCYTE® Live Cell Analysis System, Essen Bioscience). Killing index was determined as the inverse of the area under the curve (AUC) for target fluorescence over time. Intracellular cytokine levels of IL-2 and TNF-alpha were assessed by flow cytometry in co-cultured T cells after incubation in the presence of a Golgi Inhibitor. […]
Primary response of CAR-T cell compositions at thaw (no stimulation with anti-ID conjugated beads) or secondary response of CAR-stimulated CAR-T compositions (following 14 day CAR-specific stimulation with anti-ID conjugated beads) was assessed after stimulation with antigen-expressing cells. CAR-T cell compositions were cultured 1:1 with K562-CD19 antigen-expressing cells in the presence of a Golgi Inhibitor, and polyfunctional cytokine production was assessed by flow cytometry following intracellular cytokine staining for IL-2, IFN-gamma and TNF-alpha. A polyfunctional score was determined from cumulative levels of cytokines as determined in CD8+ cells after the data were normalized by scaling within donor cohorts (FIG. 13A). […]

Another assay deals with CAR-T cells. Briefly: Expansion of CAR-T cells on CAR-specific beads for 14 days (mixed CD4+/CD8+ process). To be noted: CAR-T cells prepared with 2 μM PI103 or 1 μM Compound 63. The procedure: Separate compositions of CD4+ and CD8+ cells were selected from isolated PBMCs from a leukapheresis sample from the same human donor by immunoaffinity based selection, and the selected cell compositions were cryofrozen. The separate compositions of CD4+ and CD8+ T cells were subsequently thawed and mixed at a ratio of 1:1 of viable CD4+ T cells to viable CD8+ T cells. In this study, the mixed CD4+ and CD8+ cell populations were incubated in the presence of Compound 63, PI103 or no inhibitor (DMSO vehicle control) beginning at the initiation of stimulation. In more detail, the mixed CD4+ and CD8+ T cell composition was stimulated (in the presence or absence of an inhibitor, as indicated) in the presence of paramagnetic polystyrene-coated beads with attached anti-CD3 and anti-CD28 antibodies for between 18 to 30 hours, and were then transduced with a lentiviral vector encoding an anti-CD19 CAR. The CAR contained an scFv antigen-binding domain specific for CD19 (derived from FMC63), a CD28 transmembrane region, a 4-1BB costimulatory signaling region, and a CD3-zeta derived intracellular signaling domain. […]
Functional attributes of the generated CAR-T cells were assessed in a serial stimulation assay by incubation of the generated CAR-T cells antibody conjugated to beads. […] Every 3-4 days, T cells were, counted.

Take `CC(C)c1ccccc1-n1c(=O)[nH]c2c(C(N)=O)nc(-c3cccc(O)c3)nc21` [Compound 63, 2-(3-Hydroxyphenyl)-9-(2-isopropylphenyl)-8-oxo-8,9-dihydro-7H-purine-6-carboxamide]: the “mean AUC of live T cell number over time compared to DMSO vehicle” value with anti-CD19 CAR-T cells is “larger mean AUC”. For the same molecule, in the assay with anti-CD19 CAR+ T cells, the “primary or secondary cytolytic response” value was “Improvements in primary or secondary cytolytic response” and the “primary or secondary responses: ability of CAR-T cell compositions to produce cytokines” value is “improved primary or secondary responses”. Besides, in the assay with CAR-T cells, the “expansion after restimulation with CAR-specific beads” value is recorded as “improved expansion after restimulation”.
Turning to `Oc1cccc(-c2nc(N3CCOCC3)c3oc4ncccc4c3n2)c1` [PI-103, reference compound], the “mean AUC of live T cell number over time compared to DMSO vehicle” value in the assay with anti-CD19 CAR-T cells was “larger mean AUC”. Moreover, in the assay with anti-CD19 CAR+ T cells, the “primary or secondary cytolytic response” value was “Improvements in primary or secondary cytolytic response” and the “primary or secondary responses: ability of CAR-T cell compositions to produce cytokines” value is “improved primary or secondary responses”. Further, the “expansion after restimulation with CAR-specific beads” value in the assay with CAR-T cells was “improved expansion after restimulation”.
